Measured values as given in patent US20090074774A1, “Fgfr binding peptides” (priority 2004, published 2009).
Entries after “also recorded” stand apart in the source; their conditions may differ.

Experiments:
[1] = tested on: rat cerebellar granular neurons (CGNs); test: Stimulation of neurite outgrowth of cerebellar granule neurons in culture; type: cell-based; conditions: for effect of FGFR inhibitor on neurite outgrowth stimulated by EFL: CGNs; for stimulation of neurite outgrowth: CGNs from 7-day-old rats, peptide treatment 24 h, culture without substrate
Description: B. Neurite outgrowth stimulated by EFL is inhibited by SU5402, an inhibitor of fibroblast growth factor receptor 1 (FGFR1). Results from four independent experiments are in all cases expressed as a percentage±SEM, with non-treated control cells set at 100%. *P<0.05, **P<0.01, ***P<0.001, compared with control. Paired student's t-test. For experiments, CGNs from 7-old-day rats were treated with the peptides for 24 hr. The cultures were fixed in 4% paraformaldehyde, followed by blocking with 1% BSA and then immunostained with rabbit anti-rat GAP-43 primary antibodies, and then with secondary Alexa Fluor®488 goat anti-rabbit antibodies.
Cerebellar granule neurons (CGN) were prepared from postnatal day seven Wistar rats largely as previously described (Neiiendam et al, (2004) J. Neurochem. 91(4):920-35). Cerebellar tissue was dissected in modified Krebs-Ringer solution kept on ice, and treated as described for the hippocampal neurons above. All cell cultures were incubated at 37° C. in a humidified atmosphere containing 5% CO2. All animals were handled in accordance with the national guidelines for animal welfare.
Dissociated cells were plated at a density of 10,000 cells/cm^2 on uncoated 8-well permanox Lab-Tek chamber slides in Neurobasal medium supplemented with 0.4% (w/v) bovine serum albumin (BSA; Sigma-Aldrich), 2% (v/v) B27 Neurobasal supplement, 1% (v/v) glutamax, 100 U/ml penicillin, 100 μg/ml streptomycin and 2% 1 M HEPES (all from Gibco, BRL). Peptide solutions without or with inhibitors of various signal transduction pathways were added to a total volume of 300 μl/cm^2, and the slides were incubated at 37° C. After 24 hours, the neurons were fixed with 4% (v/v) formaldehyde for 20 minutes and thereafter immunostained using primary rabbit antibodies against GAP-43 and Alexa Fluor secondary goat anti-rabbit antibodies. Images of at least 200 neurons for each group in each individual experiment were obtained systematically by using computer assisted fluorescence microscopy as previously described (Ronn et al., 2000 op. cit.). Briefly, a Nikon Diaphot inverted microscope with a Nikon Plan 20× objective (Nikon, Tokyo, Japan) coupled to a video camera (Grundig Electronics, Germany) was used for recordings. The same software package as described above for the dopaminergic neurite outgrowth assay was used to process the recorded images.

adult male Wistar rats = test: Contextual Fear Conditioning Test (CFC); type: in vivo, rat; conditions: peptide injected immediately after training
Description: The rats were handled for 120 seconds every day for 3 days preceding the first day of the experiment. On day 1 (training), the rats received a 1-second shock (unconditioned stimuli) each minute for two minutes. Animals were injected immediately after training with 5 μl EFL, ABL, CDL or control peptide, or the vehicle. Each treatment group consisted of 11-14 rats. In total, […] animals were evaluated. […] Each rat was rated as either “freezing” or “active”, every 2 seconds, using a time-sampling procedure.

[2] = target: T1, recombinant FGFR1 (immobilized FGFR Ig modules 2, 3) (Homo sapiens, UniProt P11362); test: Binding of fragments of NCAM F3, 1 to FGFR1 by surface plasmon resonance; conditions: 25° C., pH 7.4
T1 construct: The FGFR Ig modules 2, 3 were immobilized on a sensor chip CM5; made in house; host or cells: Drosophila S2 cells (Invitrogen)
T1 sequence (P11362 150-365 limits assumed): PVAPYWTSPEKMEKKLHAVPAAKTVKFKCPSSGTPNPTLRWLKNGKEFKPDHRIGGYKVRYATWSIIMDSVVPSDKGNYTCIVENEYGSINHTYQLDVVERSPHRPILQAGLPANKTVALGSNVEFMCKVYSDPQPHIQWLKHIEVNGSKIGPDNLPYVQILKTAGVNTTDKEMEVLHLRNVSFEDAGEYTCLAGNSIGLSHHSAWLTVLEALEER
Source text: The binding is given as a response difference (Resp. Diff.) between the binding to the sensor chip with the immobilized FGFR1 modules and a blank sensor chip (unspecific binding). Abbreviations: AB-A strand-loop-B strand (corresponds to the ABL peptide of SEQ ID NO: 2); CD-C strand-loop-D strand (corresponds to the CDL peptide of SEQ ID NO: 1); EF-E strand-loop-F strand (corresponds to the EFL peptide of SEQ ID NO: 5); BC-B strand-loop-C strand of F3, 1 module of NCAM; DE-D strand-loop-E strand of F3, 1 module of NCAM; FG-F strand-loop-G strand of F3, 1 module of NCAM.
The FGFR Ig module 3 and modules 2, 3 were expressed in Drosophila S2 cells (Invitrogen, USA) according to the manufacturer's instructions. All the proteins were purified by affinity chromatography using Ni^2+-NTA resin (Qiagen, USA) and/or ion exchange chromatography and gel filtration.
Binding analysis was performed using a BIAcoreX instrument (Biosensor AB) at 25° C. using 10 mM sodium phosphate pH 7.4, 150 mM NaCl as running buffer. The flow-rate was 5 μl/min. Data were analysed by non-linear curve-fitting using the manufacture's software. The FGFR Ig modules 2, 3 were immobilized on a sensor chip CM5 using amine coupling kit (Biosensor AB) as follows: 1) the two halves of the chip (designated Fc1 and Fc2) were activated by 20 μl activation solution; 2) the protein was immobilized on Fc1 using 12 μl 20 μg/ml protein in 10 mM sodium phosphate buffer pH 6.0; 3) Fc1 and Fc2 were blocked by 35 μl blocking solution. Binding of various compounds to the immobilized FGFR modules was studied as follows: A compound was injected simultaneously into Fc1 (with the immobilized FGFR modules) and Fc2 (with nothing immobilized). The curve representing unspecific binding of the compound to the surface of Fc2 was subtracted from the curve representing binding of the protein to the immobilized FGFR modules and the surface of Fc1. The resulting curve was used for analysis. The results of the binding experiments are present on FIG. 4.

[3] = tested on: rat cerebellar granular neurons; test: Survival assay of cerebellar granule neurons (apoptosis induced by low KCl); type: cell-based; conditions: for survival of CGN in culture: peptides as dendrimers (CDLd, EFLd, ABLd), apoptosis induced by 5 mM KCl, two days; for survival effect compared with the C3 peptide and GDNF: peptides as dendrimers, FIG. 2A
Description: The effect of the peptides is compared to the effect of glia-derived neurotrophic factor (GDNF) and dendrimeric form of the C3 peptide (C3d). […] Paired student's t-test.
Primary cultures of CGN were plated at a density of 100,000 cells/cm^2 on poly-L-lysine coated 8-well permanox slides in Neurobasal-A medium (Gibco, BRL) supplemented with 2% (v/v) B27, 0.5% (v/v) glutamax, 100 U/ml penicillin, 100 μg/ml streptomycin and KCl, making the final concentration of KCl in the medium 40 mM. 24 hours after plating, cytosine-β-D-arabinofuranoside (Ara-C; Sigma-Aldrich) was added to a final concentration of 10 μM to avoid proliferation of glial cells, after which the neurons were allowed to differentiate for further six days at 37° C. Apoptotic cell death was induced by washing twice and changing the medium to Basal Medium Eagle (BME; Gibco BRL) supplemented with 1% (v/v) glutamine, 100 U/ml penicillin and 100 μg/ml streptomycin, 3.5 g D-glucose/l and 1% (v/v) sodium pyruvate (Gibco BRL) together with various concentrations of peptide. Thereby the concentration of potassium in the cultures was reduced to 5 mM KCl. Two days after induction of apoptosis, the cells were fixed with 4% formaldehyde and stained with Hoechst 33258 as described for the survival assay employing hippocampal neurons.
The assay is performed as described by D'Mello et al., (1993) (Proc Natl Acad Sci U S A. 90:10989-93).

rats = test: Social Recognition Test (SRT); type: in vivo, rat; conditions: subcutaneous 4 mg/kg; 1 h and 24 h after administration; paired t-test
Description: Results from 8-9 animals expressed as a percentage±SEM. Paired t-test (*P<0.05 and ***P<0.001); B Time spent with social investigation at first meeting (T1) and second meeting (T2) 24 h after peptide/vehicle administration. Results from 9 animals expressed as a percentage±SEM. Paired t-test (*P<0.05).
The animals were evaluated using the SRT, 1 hour and 24 hours after subcutaneous injection of the peptide or vehicle.
Habituation session: On the day before the social recognition test (SRT), one habituation session was performed under similar conditions as the test session for adaptation to the experimental room, time when the test was performed, test cage, and contact with juvenile rats (a different juvenile was used during habituation session and social recognition test). The inter-trial interval for the habituation session was of 1 hour.
Experimental session: Each experimental session consisted of an initial and a test trial separated by an inter-trial (retention) interval of 2 hours.
Initial trial. Adult animals were individually housed 1 hour before testing in the test cage. For testing, a juvenile was placed into the cage and the social investigation by the adult rat was measured cumulatively for 4 min. Sniffing and grooming of body parts, anogenital sniffing and close following were scored. […]

[4] = tested on: caspase3-like activity in cultures of rat cerebellar granular neurons; test: Caspase-3-like activity assay in cerebellar granule neurons; type: cell-based; conditions: monomeric peptides; for apoptosis-associated Caspase-3-like activity: cells in culture medium depleted of KCl (5 mM); for effect on Caspase-3-like activity compared with high KCl (40 mM): culture medium depleted of KCl
Description: The effect of the peptide is compared to the effect of high concentration of kCl. *P<0.05, **P<0.01, paired student's t-test
Primary cultures of CGN were prepared as described above and apoptosis in cells was induced as described above.
For the caspase-3 assay, cultured CGN were dislodged, collected by centrifugation and lyzed. Aliquots of lysed cells were used for the assay which was performed according to the manufacturer's instructions (Promega, USA),

[5] = tested on day 8 after conditioning, placebo/control 32%

Row | direct binding to FGFR (SPR) [2] | effect on Caspase-3-like activity compared with high KCl (40 mM) [4] | Molecule | effect of FGFR inhibitor on neurite outgrowth stimulated by EFL [1] | effect of FGFR inhibitor on neurite outgrowth stimulated by EFL ([1]; listed as SU5402) | time of freezing (adult male Wistar rats; [5]) [%] | survival of CGN in culture [3] | survival effect compared with the C3 peptide and GDNF [3] | stimulation of neurite outgrowth [1] | difference between T1 and T2 of the same animal (presence of social memory) (rats) | apoptosis-associated Caspase-3-like activity [4] | time of freezing (adult male Wistar rats; tested on day 1 after conditioning, placebo/control 40.0%)
1 |  |  | Cc1c[nH]c(/C=C2\C(=O)Nc3ccccc32)c1CCC(=O)O [SU 5402] | abolished | inhibited |  |  |  |  |  |  | 
2 | capable of direct binding | comparable | KAEWKSLGEEAWHSK (CDL peptide, fragment of NCAM F3,1) [C strand-loop-D strand fragment of NCAM F3, 1 module] |  |  | 42.5 | significantly promote survival | higher | strong stimulators; also recorded: stimulate neurite outgrowth | significant differences between T1 and T2 | inhibit | 
3 | capable of direct binding |  | SIDRVEPYSSTAQVQFD (ABL peptide, fragment of NCAM F3,1) [A strand-loop-B strand fragment of NCAM F3, 1 module] |  |  |  | does not influence survival |  | inactive |  |  | 
4 | capable of direct binding | comparable | TIMGLKPETRYAVR (TIMGLKPETRTYAVR; EFL peptide, fragment of NCAM F3,1) [E strand-loop-F strand fragment of NCAM F3, 1, used as positive control] |  |  | 42.5 | significantly promote survival | higher | strong stimulators; also recorded: stimulate neurite outgrowth | significant differences between T1 and T2 | inhibit | approximately 50.3%
